One data set deals with Mettl8 mRNA. In words: Real-time PCR of Mettl8 mRNA in ESCs / E14 cells treated with STAT3 inhibitors. The format is cell-based, mouse. The settings on record: for Mettl8 mRNA expression (real-time PCR): E14 cells treated for 6 hr; for Mettl8 mRNA (real-time PCR): ESCs treated with 10 μM STAT3 inhibitor for 1 hr. The protocol: To investigated how STAT3 crosstalk with other potential pathways in pluripotency of embryonic stem cells (“ESCs”), inventors tried to identify factors that were regulated by STAT3 using mouse ESCs treated with STAT3 inhibitors STA-21 and STATTIC. Real-time PCR was performed to screen for changes when embryonic stem cells (ESCs) were treated with STAT3 inhibitor 10 μM STA-21 and STATTIC for 1 hr. RNAs were extracted with TRIZOL followed by reverse transcription. Total RNAs were extracted from E14 cells treated with STA-21 and STATTIC for 6 hr and analyzed by real-time PCR. […] The data are shown as the mean±SD from three independent experiments (*p<0.05). The cell lysates from treated E14 cells were also analyzed by Western blot. Consistent with the mRNA expression, the protein levels of Mettl8 were reduced with presence of STA-21 and STATTIC (FIG. 5J). The value of each band was calculated from three independent replicates and indicates the relative expression level after normalizing to the loading control Actin.

Data set [1] relates to Mettl8. In words: Western blot of Mettl8 protein in E14 cells treated with STAT3 inhibitors. The format is cell-based, mouse. As for the experimental part:
Total RNAs were extracted from E14 cells treated with STA-21 and STATTIC for 6 hr and analyzed by real-time PCR. […] The data are shown as the mean±SD from three independent experiments (*p<0.05). The cell lysates from treated E14 cells were also analyzed by Western blot. Consistent with the mRNA expression, the protein levels of Mettl8 were reduced with presence of STA-21 and STATTIC (FIG. 5J). The value of each band was calculated from three independent replicates and indicates the relative expression level after normalizing to the loading control Actin.

In data set [2] the test system is Mettl8. Description: STAT3 shRNA knockdown in E14 cells, Mettl8 mRNA and protein. Format: cell-based, mouse. The settings on record: Luc shRNA as control. As for the experimental part:
Luc shRNA was used as control. Data in FIG. 5K are shown as the mean±SD from three independent experiments. The value of each band in FIG. 5L was calculated from three independent replicates and indicates the relative expression level after normalizing to the loading control Actin.

A further data set relates to pS/TQ motif on Mettl8. Description: Flag IP and pS/TQ immunoblot of Flag-Mettl8 in HCT116 stable cells. The format is cell-based, human. From the text: Since both ATM and p53 are tumor suppressors in response to DNA damage, inventors further explored the function of Mettl8 in DNA damage. […] Equal amount of lysates were subject to Flag immunoprecipitation (“IP”) with M-2 beads and washed extensively before being resolved on SDS-PAGE and followed by immunoblotting with an phosphorylation-specific antibody against pS/TQ motif (Cell signaling) and a Flag antibodu. The lysates were immunoblotted by anti-Flag, Actin, ATM pS1981, Chk2 pT68 and p53 p515 antibodies.
In this experiment, equal amount of lysate was immunopurified with M2 beads and probed for pS/TQ antibody, the lysate was checked for antibodies indicated in FIG. 7C.
Equal amounts of lysate were immunopurified with M2 beads and probed for pS/TQ antibody, the lysate was checked for antibodies indicated.

A further data set deals with ATM, KAP1, Chk2, p53. Description: ATM inhibitor pre-treatment of Mettl8 mutant or knockout cells before irradiation (immunoblot). Format: cell-based. The settings on record: Mettl8 mutant or knockout cells pre-treated with ATM inhibitor before irradiation.
The subject of data set [3] is HCT116 cells. In words: Cell growth (colony formation) assay, crystal violet. Format: cell-based, human. The settings on record: HCT116, 500 cells/well, 7 days, versus scramble shRNA / empty vector. The protocol:
(§1) In the soft agar colony assay, HCT116 cells with Mettl8 wt or ΔSAM were seeded at 500 cells/well in 6-well plate in triplicate and after 2-week colonies grown up in soft agar was shown. Colonies with more than 50 cells were counted with Quantity One software. […] 7 days later, cells were fixed and stained with crystal violet. The images of plates were collected with ImageLab software.

In a further data set the test system is ATM. Description: Camptothecin treatment of HCT116 WT and METTL8 KO cells, ATM activation immunoblot. Format: cell-based, human. The settings on record: 10 μM camptothecin 0-24 hr; Mettl8 knockout HCT116 cells compared with WT. The protocol:
HCT116 WT and METTL8 KO cells were treated with 10 μM camptothecin for 0 h, 1 hr, 3 hr, 6 hr, 16 hr, and 24 hr. Equal amount of lysates were resolved on SDS-PAGE followed by immunoblotting with antibodies.

Data set [4] concerns Mettl8. In words: shRNA knockdown of Mettl8 in HCT116 (lentivirus, Western blotting). The format is cell-based, human. The settings on record: HCT116, lentiviral pLKO1 shRNA, 72 h. The protocol: To study the functions of Mettl8, hairpin shRNA was ordered and cloned into pLKO1 vector by AgeI/EcoRI, with the following sequence:
The hairpin sequences in the shRNA were underlined. […]. Supernatant was harvested after 48 hours and cleared by filtration. Then viral solution was added to fresh HCT116 culture in the presence of 6 ug/ml polybrene. After 72 h, the cells were lysed and equal amount of lysate was resolved on SDS-PAGE for knock down efficiency by Western blotting with anti-Mettl8 and actin antibodies as indicated in FIG. 2.

Data set [5] concerns Mettl8. Description: Mettl8 expression after treatment with interstrand crosslinking agents. Format: cell-based.
For another data set, the system named is Mettl8 protein. In words: Mettl8 protein level after cisplatin treatment (SDS-PAGE, immunoblotting). The format is cell-based, human. Conditions: 293T, HCT116 and HepG2 cells; cisplatin 0, 10, 30, 60, 100, 150 μM for 24 h. The protocol:
To further study modulation of Mettl8 protein, 293T, HCT116, and HepG2 cells were treated with different dosage of cisplatin (0, 10, 30, 60, 100, and 150 μM) for 24 h before cell lysates were collected and subjected to SDS-PAGE followed by immunoblotting with Mettl8 and Hsp90 antibodies.

In data set [6] the test system is HCT116 wildtype and Mettl8 knockout cells. In words: Cisplatin sensitivity MTS assay. Format: cell-based, human. Conditions: Mettl8 knockout versus wildtype HCT116 cells. As for the experimental part:
(§2) To further study the relationship between cisplatin and Mettl8, MTS and colony survival assays were performed. In the MTS assay, HCT116 wildtype and Mettl8 knockout cells were seed in 96 well at 1000 cell/well density and treated with different dose of cisplatin. In the colony survival assay, 500 cells per well of HCT116 control and Mettl8 knockout cells were seeded into 6-well plates in triplicate and subjected to different dosage of cisplatin treatment for 2 h.

Data set [7] has as its system HCT116 control and Mettl8 knockout cells. Description: Cisplatin sensitivity colony survival assay. Format: cell-based, human. The settings on record: Mettl8 knockout versus control HCT116 cells; cisplatin 2 h, grown a week. As for the experimental part: as §2
Cells were grown in fresh media for a week and the survival cell colonies were fixed and stained with crystal violet. Colonies with more than 50 cells were counted. The result was presented in ±SEM of percentage of colonies survived compared to untreated samples. […] This effect is dependent on p53 for cisplatin induced apoptosis (data not shown). This difference in sensitivity could be exploited in clinical context that patients with functional p53 and low Mettl8 tumor may benefit more from cisplatin treatment instead of radiotherapy.

The nature of data set [8]: 3H-SAM binding assay with GST-Mettl8 proteins on beads, scintillation counting. Also noted: species or system human. The settings on record: recombinant purified GST-Mettl8 wt and SAM mutant. The protocol: To test the ability of Mettl8 to bind SAM, equal amounts of GST, GST-Mettl8 WT and mutant proteins were conjugated on Glutathione sepharose 4B beads and incubated with ^3H-SAM for 30 min at 30° C. with empty beads control. After extensive washing, the beads were transferred to scintillation tubes and measured on liquid scintillation counter in triplicate.
(§3) As ATM is essential for cell checkpoint, the cell cycle profiles were studies in this experiment. The plasmid containing the cDNA of human Mettle8 SAM deletion mutant was constructed by PCR based mutagenesis method to delete the specific nucleotide sequence in the SAM domain as shown in FIG. 7A. After the plasmid was transfected into HCT116 wildtype cells, stable colonies of cell containing the plasmid were selected, which were called Mettl8 ΔSAM cells. The Mettle8 ΔSAM variant cDNA was also transduced into human skin fibroblast as shown in FIG. 7N by a lentivirus based method. These HCT116 stable cells were examined in cell cycle analysis (FIG. 9A) and soft agar colony assay (FIG. 9B).

A further data set relates to HCT116 stable cells. In words: Cell cycle profiling by FACS of HCT116 stable cells. The format is cell-based, human. The settings on record: un-stressed conditions, versus empty vector and wild-type Mettl8.
From the text: as §3
In addition, HCT116 stable cells with Mettl8 variant were fixed with 70% ethanol and stained with pI followed by cell cycle profiling on FACS and data were analysed with FlowJo software.

Data set [9] concerns HCT116 cells. In words: Soft agar colony assay. The format is cell-based, human. The settings on record: HCT116 stable cells, 500 cells/well, 2 weeks, compared to empty vector. As for the experimental part:
as §1

Consider `CC1CC(=O)c2c(ccc3c2C(=O)c2cccc(O)c2C3=O)C1` (stereo not shown) [STA-21, 8-hydroxy-3-methyl-3,4-dihydrotetraphene-1,7,12(2H)-trione], for which, in the data set on Mettl8 mRNA, the “Mettl8 mRNA expression (real-time PCR)” value is listed as “inhibited” and the “Mettl8 mRNA (real-time PCR)” value is on record as “downregulated”. Besides, the “Mettl8 protein levels (Western blot)” value with Mettl8 [1] is “reduced”.
Consider “STAT3 shRNA: shRNA sequence TTTGTGCTTAGGATGGCCC, SEQ ID No: 7; full sequence SEQ ID No: 8 (GATCCCCGGGCCATCCTAAGCACAAATTCAAGAGATTTGTGCTTAGGATGGCCCTTTTTA)”, for which, in the data set on Mettl8 [2], the “Mettl8 mRNA” value is given as “downregulation” and the Mettl8 protein result was “downregulation”.
In the case of `O=c1cc(-c2cccc3c2Sc2ccccc2S3)oc(N2CCOCC2)c1` [Ku55933], the “prevention of Mettl8 phosphorylation by IR” value with pS/TQ motif on Mettl8 (1 μM Ku55933 pretreatment 1 hour, 10 Gy, harvested 1 h later, doses 0.1, 1, 5 μM tested) is given as “sufficient to prevent the phosphorylation of Mettl8”. The “irradiation-induced phosphorylation at the pS/TQ motif of Flag-Mettl8” value in the data set on pS/TQ motif on Mettl8 (HCT116 Flag-Mettl8 cells pretreated 1 hour with inhibitor (AZD7762 0.5 μM), then 10 Gy) was “reduced the phosphorylation”. Also, in the data set with ATM, KAP1, Chk2, p53, the “hyper activation of ATM, KAP1, Chk2, p53 by irradiation” value is reported as “either reverted or eliminated the hyper activation”.
Turning to “Mettl8 shRNA2: shRNA sequence GCGAGAGAATCATCATGGGAT, SEQ ID No: 3”, the colony formation entry in the data set with HCT116 cells [3] is “significantly reduced the colony formation”.
Take `CC[C@@]1(O)C(=O)OCc2c1cc1n(c2=O)Cc2cc3ccccc3nc2-1` [camptothecin]: in the data set with ATM, the ATM activation entry is given as “caused hyperactivation of ATM”.
As for “shRNA: hairpin shRNA against Mettl8 cloned into pLKO1, SEQ ID NO: 15; hairpin matches M8 shRNA1 GTTGAGGGAATTTCCTGAAAT (CCGGGTTGAGGGAATTTCCTGAAATCTCGAGATTTCAGGAAATTCCCTCAACTTTTTTG)”, in the data set with Mettl8 [4], the “Mettl8 expression (knock down efficiency, Western blotting)” value is listed as “can knock down the expression of Mettl8”.
Consider `O=[N+]([O-])c1ccc2c(c1)S(=O)(=O)C=C2` [STATTIC, 6-Nitrobenzo[b]thiophene 1,1-dioxide], for which, in the data set on Mettl8 mRNA, the “Mettl8 mRNA expression (real-time PCR)” value is “inhibited” and the “Mettl8 mRNA (real-time PCR)” value is “downregulated”. Besides, the “Mettl8 protein levels (Western blot)” value in the data set on Mettl8 [1] is listed as “reduced”.
With `CO[C@@]12[C@H](COC(N)=O)C3=C(C(=O)C(C)=C(N)C3=O)N1C[C@@H]1N[C@@H]12` [mitomycin C], the “Mettl8 expression at transcriptional level” value in the data set with Mettl8 [5] is on record as “downregulated at transcriptional level”.
As for `N.N.[Cl][Pt][Cl]` [cisplatin], the Mettl8 protein level result in the data set with Mettl8 protein is “dramatically reduced”. For the same molecule, the “Mettl8 expression at transcriptional level” value with Mettl8 [5] is reported as “downregulated at transcriptional level”. Further, the “sensitivity to cisplatin treatment (MTS assay)” value in data set [6] was “more sensitive”. The “sensitivity to cisplatin treatment (colony survival assay)” value in [7] was “more sensitive”.

B1: Mettl8 ASAM variant: human Mettl8 variant with SAM domain deletion (aa 200-208), SEQ ID No. 18; competes with endogenous Mettl8 (protein)
chain: MNMIWRNSISCLRLGKVPHRYQSGYHPVAPLGSRILTDPAKVFEHNMWDHMQWSKEEEAAARKKVKENSAVRVLLEEQVKYEREASKYWDTFYKIHKNKFFKDRNWLLREFPEILPVDQKPEEKARESSWDHVKTSATNRFSRMHCPTVPDEKNHYEKSSGSSEGQSKTESDFSNLDSEKHKKGPMETGLFPGSNATFRNSVFPILNTLENSPESFLYCCDFASGAVELVKSHSSYRATQCFAFVHDVCDDGLPYPFPDGILDVILLVFVLSSIHPDRMQGVVNRLSKLLKPGGMLLFRDYGRYDKTQLRFKKGHCLSENFYVRGDGTRAYFFTKGEVHSMFCKASLDEKQNLVDRRLQVNRKKQVKMHRVWIQGKFQKPLHQTQNSSNMVSTLLSQD
B1: the “binding of SAM” value in [8] was “lost the ability to bind the SAM donor molecule”. Besides, the cell cycle profile entry with HCT116 stable cells is “more accumulation of G2/M populations”. Besides, the “soft agar colony numbers” value in the data set on HCT116 cells [9] was “much reduced colony numbers”.

The values above are taken from US11642362B2, “Methods of inhibiting cell proliferation and METTL8 activity” (NATIONAL UNIVERSITY OF SINGAPORE, priority 2017, dated 2023).
